The values below come from ChEMBL document CHEMBL1126024, “Di- and triester prodrugs of the varicella-zoster antiviral agent 6-methoxypurine arabinoside” (J Med Chem, 1992).

≈ marks a conversion by molar mass, not a printed value.

Data set [1] is described as follows: Ester prodrugs: stability in buffer (pH 7). The data set is classed as physicochemical.
The species named for data set [2] is Rattus norvegicus. The data set is described as follows: (§1) Ester prodrugs: recovery of parent compound in rat urine. The data set is classed as ADME, organism-based. Particulars: in vivo.
Data set [3] is described as follows: Solubility (phosphate buffered saline). Particulars: read-out: S. Format: physicochemical.
The species entered for data set [4] is Rattus norvegicus. Described as §1. Format: ADME, organism-based. Particulars: in vivo. This is another data set of the same source.

Turning to `COc1ncnc2c1ncn2[C@@H]1O[C@H](COC(=O)C(C)C)[C@@H](OC(=O)C(C)C)[C@@H]1O`, the T1/2 in data set [1] is 19.5 days. Moreover, in data set [2], the Urinary recovery worked out at 17.7%. Besides, the solubility in data set [3] was 428 µM (≈ 181 µg/mL).
`CCCCC(=O)OC[C@H]1O[C@@H](n2cnc3c(OC)ncnc32)[C@@H](O)[C@@H]1OC(=O)CCCC`: the Urinary recovery in data set [2] is listed as 12.8%. In addition, the solubility in data set [3] came out at 78 µM (≈ 35.1 µg/mL).
With `CCC(=O)OC[C@H]1O[C@@H](n2cnc3c(OC)ncnc32)[C@@H](O)[C@@H]1OC(=O)CC`, the T1/2 in data set [1] is 30.2 days. The Urinary recovery in data set [2] is recorded as 11%. Further, the solubility in data set [3] amounted to 2390 µM (≈ 943 µg/mL).
As to `COc1ccc(C(=O)OC[C@H]2O[C@@H](n3cnc4c(OC)ncnc43)[C@@H](OC(=O)c3ccc(OC)cc3)[C@@H]2OC(=O)c2ccc(OC)cc2)cc1`, the Urinary recovery in data set [2] stood at 4.1%. The solubility in data set [3] was less than 5 µM.
`COc1ncnc2c1ncn2[C@@H]1O[C@H](COC(=O)Cc2ccccc2)[C@@H](OC(=O)Cc2ccccc2)[C@@H]1O`: the Urinary recovery in data set [2] stood at 1.5%. Further, in data set [3], the solubility is less than 5 µM.
Taken in the same sequence, the figures for `CCCCC(=O)OC[C@H]1O[C@@H](n2cnc3c(OC)ncnc32)[C@@H](OC(=O)CCCC)[C@@H]1OC(=O)CCCC` were 2.2% and 21 µM (≈ 11.2 µg/mL).
For `CCC(=O)O[C@H]1[C@H](OC(=O)CC)[C@@H](CO)O[C@H]1n1cnc2c(OC)ncnc21`, the T1/2 in data set [1] is 525 days. The Urinary recovery in data set [2] is given as 8.7%. Moreover, the solubility in data set [3] came to 23500 µM (≈ 9270 µg/mL).
Consider `COc1ncnc2c1ncn2[C@@H]1O[C@H](COC(=O)C(C)(C)C)[C@@H](O)[C@@H]1OC(=O)C(C)(C)C`, for which the T1/2 in data set [1] was 178 days. In data set [2], the Urinary recovery amounted to 15.7%. In addition, in data set [3], the solubility was determined as 1350 µM (≈ 608 µg/mL).
Taken in the same sequence, the figures for `CCCC(=O)O[C@H]1[C@H](OC(=O)CCC)[C@@H](CO)O[C@H]1n1cnc2c(OC)ncnc21` were 13.1 days, 4.8% and 9600 µM (≈ 4060 µg/mL).
For `COc1ncnc2c1ncn2[C@@H]1O[C@H](CO)[C@@H](OC(=O)c2ccc(C)cc2)[C@@H]1OC(=O)c1ccc(C)cc1`, the Urinary recovery in data set [2] amounted to 0.2%. In addition, in data set [3], the solubility was determined as 5 µM (≈ 2.59 µg/mL).
Turning to `COc1ncnc2c1ncn2[C@@H]1O[C@H](CO)[C@@H](OC(=O)C(C)(C)C)[C@@H]1OC(=O)C(C)(C)C`, the T1/2 in data set [1] was determined as 72.7 days. In addition, the Urinary recovery in data set [2] came out at 1.6%. The solubility in data set [3] is 640 µM (≈ 288 µg/mL).
As for `COc1ccc(C(=O)OC[C@H]2O[C@@H](n3cnc4c(OC)ncnc43)[C@@H](OC(=O)c3ccc(OC)cc3)[C@@H]2O)cc1`, in data set [2], the Urinary recovery is reported as 0.2%. For the same compound, the solubility in data set [3] came to 6 µM (≈ 3.3 µg/mL).
As to `COc1ncnc2c1ncn2[C@@H]1O[C@H](COC(=O)C(C)(C)C)[C@@H](OC(=O)C(C)(C)C)[C@@H]1OC(=O)C(C)(C)C`, the Urinary recovery in data set [2] came to 5.4%. Besides, the solubility in data set [3] was found to be 14 µM (≈ 7.48 µg/mL).
Taken in the same sequence, the figures for `COc1ncnc2c1ncn2[C@@H]1O[C@H](COC(=O)C(C)(C)C)[C@@H](OC(=O)C(C)(C)C)[C@@H]1O` were 1.2% and 32 µM (≈ 14.4 µg/mL).
Taken in the same sequence, the figures for `CCCCCCCC(=O)O[C@H]1[C@H](OC(=O)CCCCCCC)[C@@H](CO)O[C@H]1n1cnc2c(OC)ncnc21` were 12.6% and 36 µM (≈ 19.2 µg/mL).
Consider `CCCCC(=O)OC[C@H]1O[C@@H](n2cnc3c(OC)ncnc32)[C@@H](OC(=O)CCCC)[C@@H]1O`, for which the T1/2 in data set [1] came to 51.6 days. Also, the Urinary recovery in data set [2] is 15.3%. Besides, the solubility in data set [3] turned out to be 1300 µM (≈ 586 µg/mL).
Taken in the same sequence, the figures for `COc1ncnc2c1ncn2[C@@H]1O[C@H](CO)[C@@H](OC(=O)C(C)C)[C@@H]1OC(=O)C(C)C` were 28.9 days, 2.3% and 3300 µM (≈ 1390 µg/mL).
`COc1ncnc2c1ncn2[C@@H]1O[C@H](COC(=O)C(C)C)[C@@H](O)[C@@H]1OC(=O)C(C)C`: the T1/2 in data set [1] was 53.6 days. The Urinary recovery in data set [2] is recorded as 4.2%. Moreover, the solubility in data set [3] stood at 9110 µM (≈ 3850 µg/mL).
Take `COc1ncnc2c1ncn2[C@@H]1O[C@H](CO)[C@@H](O)[C@@H]1O`: the Urinary recovery in data set [4] was determined as 25.9%; in data set [2], 3.8%. Moreover, the solubility in data set [3] came out at 49800 µM (≈ 14100 µg/mL).
For `COc1ncnc2c1ncn2[C@@H]1O[C@H](CO)[C@@H](OC(C)=O)[C@@H]1OC(C)=O`, the T1/2 in data set [1] was determined as 19.1 days. Also, in data set [2], the Urinary recovery was found to be 19.2%. For the same compound, in data set [3], the solubility was found to be 172000 µM (≈ 63000 µg/mL).
Taken in the same sequence, the figures for `COc1ncnc2c1ncn2[C@@H]1O[C@H](COC(C)=O)[C@@H](O)[C@@H]1OC(C)=O` were 22.5 days, 10.6% and 7100 µM (≈ 2600 µg/mL).
In the case of `COc1ncnc2c1ncn2[C@@H]1O[C@H](COS(=O)(=O)c2ccc(C)cc2)[C@@H](OS(=O)(=O)c2ccc(C)cc2)[C@@H]1OS(=O)(=O)c1ccc(C)cc1`, in data set [2], the Urinary recovery is given as 3%. The solubility in data set [3] was determined as 5 µM (≈ 3.72 µg/mL).
Taken in the same sequence, the figures for `COc1ncnc2c1ncn2[C@@H]1O[C@H](CO)[C@@H](OC(=O)c2ccccc2)[C@@H]1OC(=O)c1ccccc1` were 0.1% and 13 µM (≈ 6.38 µg/mL).
Taken in the same sequence, the figures for `COc1ncnc2c1ncn2[C@@H]1O[C@H](COC(=O)COc2ccccc2)[C@@H](OC(=O)COc2ccccc2)[C@@H]1OC(=O)COc1ccccc1` were 4.6% and 22 µM (≈ 15.1 µg/mL).
Taken in the same sequence, the figures for `CCCCCCC(=O)O[C@H]1[C@H](OC(=O)CCCCCC)[C@@H](CO)O[C@H]1n1cnc2c(OC)ncnc21` were 10.5% and 30 µM (≈ 15.2 µg/mL).
For `COc1ccc(C(=O)O[C@H]2[C@H](OC(=O)c3ccc(OC)cc3)[C@@H](CO)O[C@H]2n2cnc3c(OC)ncnc32)cc1`, in data set [2], the Urinary recovery came to 0.2%. For the same compound, in data set [3], the solubility was determined as 5 µM (≈ 2.75 µg/mL).
Consider `COc1ncnc2c1ncn2[C@@H]1O[C@H](COC(=O)c2ccc(C)cc2)[C@@H](OC(=O)c2ccc(C)cc2)[C@@H]1OC(=O)c1ccc(C)cc1`, for which, in data set [2], the Urinary recovery was 5.6%. Further, the solubility in data set [3] was less than 5 µM.
Taken in the same sequence, the figures for `COc1ncnc2c1ncn2[C@@H]1O[C@H](COC(=O)c2ccccc2)[C@@H](OC(=O)c2ccccc2)[C@@H]1OC(=O)c1ccccc1` were 0.9% and 8 µM (≈ 4.76 µg/mL).
In the case of `COc1ncnc2c1ncn2[C@@H]1O[C@H](COS(C)(=O)=O)[C@@H](OS(C)(=O)=O)[C@@H]1OS(C)(=O)=O`, in data set [1], the T1/2 was greater than 70 days. The Urinary recovery in data set [2] is given as 4.4%. In addition, the solubility in data set [3] worked out at 3220 µM (≈ 1660 µg/mL).
Turning to `COc1ncnc2c1ncn2[C@@H]1O[C@H](CO)[C@@H](OC(=O)COc2ccccc2)[C@@H]1OC(=O)COc1ccccc1`, in data set [2], the Urinary recovery worked out at 7.6%. In data set [3], the solubility turned out to be 67 µM (≈ 36.9 µg/mL).
For the compound `COc1ncnc2c1ncn2[C@@H]1O[C@H](COC(=O)c2ccccc2)[C@@H](O)[C@@H]1OC(=O)c1ccccc1`, the Urinary recovery in data set [2] is 5.8%. Moreover, in data set [3], the solubility is less than 5 µM.
Regarding `COc1ncnc2c1ncn2[C@@H]1O[C@H](COC(C)=O)[C@@H](OC(C)=O)[C@@H]1O`, the T1/2 in data set [1] turned out to be 30.6 days. In addition, in data set [2], the Urinary recovery turned out to be 16.3%. Moreover, the solubility in data set [3] worked out at 12300 µM (≈ 4510 µg/mL).
Regarding `COc1ncnc2c1ncn2[C@@H]1O[C@H](COC(=O)Cc2ccccc2)[C@@H](OC(=O)Cc2ccccc2)[C@@H]1OC(=O)Cc1ccccc1`, the Urinary recovery in data set [2] is on record as 4.1%. The solubility in data set [3] was less than 5 µM.
As for `CCCCCC(=O)O[C@H]1[C@H](OC(=O)CCCCC)[C@@H](CO)O[C@H]1n1cnc2c(OC)ncnc21`, the Urinary recovery in data set [2] was 4.8%. For the same compound, in data set [3], the solubility was found to be 140 µM (≈ 67 µg/mL).
Taken in the same sequence, the figures for `COc1ncnc2c1ncn2[C@@H]1O[C@H](COC(=O)COc2ccccc2)[C@@H](OC(=O)COc2ccccc2)[C@@H]1O` were 3.8% and 58 µM (≈ 31.9 µg/mL).
For the compound `COc1ncnc2c1ncn2[C@@H]1O[C@H](COC(C)=O)[C@@H](OC(C)=O)[C@@H]1OC(C)=O`, the T1/2 in data set [1] was 15.2 days. Also, the Urinary recovery in data set [2] turned out to be 8.3%. In addition, the solubility in data set [3] is 81800 µM (≈ 33400 µg/mL).
Take `COc1ncnc2c1ncn2[C@@H]1O[C@H](CO)[C@@H](OC(=O)Cc2ccccc2)[C@@H]1OC(=O)Cc1ccccc1`: the Urinary recovery in data set [2] came out at 2.7%. In data set [3], the solubility amounted to 204 µM (≈ 106 µg/mL).
Take `CCCC(=O)OC[C@H]1O[C@@H](n2cnc3c(OC)ncnc32)[C@@H](O)[C@@H]1OC(=O)CCC`: the Urinary recovery in data set [2] is given as 11.8%. Moreover, the solubility in data set [3] was found to be 422 µM (≈ 178 µg/mL).
Regarding `COc1ncnc2c1ncn2[C@@H]1O[C@H](COC(=O)C(C)C)[C@@H](OC(=O)C(C)C)[C@@H]1OC(=O)C(C)C`, in data set [2], the Urinary recovery was 2.1%. For the same compound, the solubility in data set [3] stood at 141 µM (≈ 69.4 µg/mL).
For the compound `CCC(=O)OC[C@H]1O[C@@H](n2cnc3c(OC)ncnc32)[C@@H](OC(=O)CC)[C@@H]1OC(=O)CC`, the T1/2 in data set [1] came to 127 days. For the same compound, the Urinary recovery in data set [2] was found to be 0.8%. The solubility in data set [3] was 3550 µM (≈ 1600 µg/mL).
For the compound `CCCC(=O)OC[C@H]1O[C@@H](n2cnc3c(OC)ncnc32)[C@@H](OC(=O)CCC)[C@@H]1OC(=O)CCC`, the Urinary recovery in data set [2] is recorded as 0.7%. For the same compound, the solubility in data set [3] came to 102 µM (≈ 50.2 µg/mL).
Taken in the same sequence, the figures for `COc1ncnc2c1ncn2[C@@H]1O[C@H](COC(=O)c2ccc(Cl)cc2)[C@@H](OC(=O)c2ccc(Cl)cc2)[C@@H]1OC(=O)c1ccc(Cl)cc1` were 4.5% and less than 5 µM.
Take `CCCCC(=O)O[C@H]1[C@H](OC(=O)CCCC)[C@@H](CO)O[C@H]1n1cnc2c(OC)ncnc21`: in data set [1], the T1/2 worked out at 7.02 days. Besides, the Urinary recovery in data set [2] turned out to be 9.1%. For the same compound, in data set [3], the solubility is 694 µM (≈ 313 µg/mL).
For `COc1ncnc2c1ncn2[C@@H]1O[C@H](COC(=O)c2ccccc2)C(OC(=O)c2ccccc2)[C@@H]1O` (single isomer, unassigned), the Urinary recovery in data set [2] is reported as 4.3%. In addition, the solubility in data set [3] stood at 33 µM (≈ 16.2 µg/mL).
As for `COc1ccc(C(=O)OC[C@H]2O[C@@H](n3cnc4c(OC)ncnc43)[C@@H](O)C2OC(=O)c2ccc(OC)cc2)cc1` (single isomer, unassigned), the Urinary recovery in data set [2] came out at 0.2%. The solubility in data set [3] was 45 µM (≈ 24.8 µg/mL).
